Measured values as given in US4954509A, “Isoquinoline derivatives and their use as analgesics” (Dr. Lo. Zambeletti S.p.A., priority 1988, dated 1990).
Structures can show the parent of a compound that is named as a salt. Where two headings read alike, the source gives them in different places.

What was measured:
MU opiate receptor = target: T1, MU opiate receptor (Cavia porcellus, UniProt A0ACM8Q262); experiment: opiate receptors binding, MU (3H-DAGO, guinea pig brain homogenate)
T1 construct: 3H-DAGO displacement
T1 sequence (A0ACM8Q262 1-400): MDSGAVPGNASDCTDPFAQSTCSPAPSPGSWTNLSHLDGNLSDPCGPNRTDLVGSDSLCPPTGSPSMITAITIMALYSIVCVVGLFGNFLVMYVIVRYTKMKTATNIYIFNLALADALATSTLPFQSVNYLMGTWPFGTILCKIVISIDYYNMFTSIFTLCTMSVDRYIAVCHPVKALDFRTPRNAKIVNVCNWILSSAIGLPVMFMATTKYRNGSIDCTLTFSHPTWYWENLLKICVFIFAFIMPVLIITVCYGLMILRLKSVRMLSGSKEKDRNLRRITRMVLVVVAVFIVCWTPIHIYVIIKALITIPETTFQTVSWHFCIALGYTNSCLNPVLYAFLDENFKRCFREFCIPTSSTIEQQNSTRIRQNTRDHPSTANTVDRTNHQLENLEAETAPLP
Protocol: Radio receptor binding to μ and K sites is performed on fresh guinea pig brain homogenate prepared according to Kosterlitz.
(§1) Whole brain without cerebellum is homogenized in 50 mM, Tris-buffer (pH 7.4 at 0° C.) and centrifuged at 49,000×g×10 min.
The pellet is then resuspended in the same buffer, incubated at 37° C. for 45 min. and centrifuged again. 1.9ml of the final homogenate (1:100 in Tris-pH 7.4, 0° C.) is used for the binding assay.
The filters are then dryed, solubilized in Filtercount and the radioactivity monitored. Non specific binding
is determined in the presence of 10-6M Naloxone.

KAPPA opiate receptor = target: T2, KAPPA opiate receptor (Cavia porcellus, UniProt P41144); experiment: opiate receptors binding, KAPPA (3H-Ethyl Ketocyclazocine, guinea pig brain homogenate)
T2 construct: fresh guinea pig brain homogenate; from tissue; host or cells: guinea pig whole brain without cerebellum, fresh homogenate
T2 sequence (P41144 whole entry): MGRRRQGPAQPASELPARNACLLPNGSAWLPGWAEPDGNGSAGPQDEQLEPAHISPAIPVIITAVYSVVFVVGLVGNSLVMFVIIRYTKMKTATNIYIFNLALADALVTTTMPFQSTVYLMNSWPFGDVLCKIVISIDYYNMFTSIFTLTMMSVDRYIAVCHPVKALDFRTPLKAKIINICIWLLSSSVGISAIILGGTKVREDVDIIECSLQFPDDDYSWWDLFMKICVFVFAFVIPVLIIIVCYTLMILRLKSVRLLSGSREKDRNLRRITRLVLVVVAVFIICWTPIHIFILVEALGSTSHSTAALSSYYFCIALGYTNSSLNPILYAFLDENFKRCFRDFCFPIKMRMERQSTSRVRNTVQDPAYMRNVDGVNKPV
Protocol: Radio receptor binding to μ and K sites is performed on fresh guinea pig brain homogenate prepared according to Kosterlitz. (1981).
as §1
The pellet is then resuspended in the same buffer, incubated at 37° C. for 45 min. and centrifuged again. 1.9ml of the final homogenate (1:100 in Tris-pH 7.4, 0° C.) is used for the binding assay. Binding to […] sites (Magnan J., 1982) 1 3H [D-Ala2, MePhe4, Gly-o15]Enkephalin (3H-DAGO), an
is determined in the presence of 10-6M Naloxone. 1 Binding to K sites (Magnan J., 1982)
The binding to the K-sites is performed using 3H-Ethyl Ketocyclazocine, a non-selective benzomorphan compound which binds to μ, δ and K-sites, in the presence of 100nM of unlabelled DAGO and 100nM of the enkephalin analogue [DAla^2 -DLeu^5 ]Enkephalin (DADLE), to prevent μ and δ binding respectively.
Final homogenate with solutions of the cold ligand and of the labelled ligand is incubated for 40 min. at 25° C., filtered through Whatman GF/C glass filter discs and washed.
The radioactivity bound to the filters is counted by liquid scintillation spectrophotometry.
The non-specific binding is determined in the presence of 500nM of the benzomorphan non-selective compound Mr 2266.
The equilibrium dissociation constant (KD) and the maximum binding capacity (Bmax) are determined from the analysis of saturation curves, while the inhibition constant (Ki) is determined from the analysis of competition experiments (Hill 1910; Scatchard 1949; Cheng and Prusoff 1973; Gillan et al. 1980).

mice [1] = experiment: tail-flick test in mice; assay type: in vivo, mouse (male Charles River, Swiss Strain); settings: Mus musculus, sc, 0.5 h, subcutaneous; calculated as the free base; 30 min pretreatment
Protocol: (B) Tail-flick test in mice
The methodology employed is based on that described by D'Amour and Smith, J. Pharmacol. Exp. Ther. 72, 74/1941.
Male Charles River mice (Swiss Strain), 22-34g body weight were used. Animals were allowed food and water ad libitum and were randomized into groups of 10 prior to experimentation.
Test compounds were dissolved in either distilled water or distilled water plus 0.1 M AMS and administered by the subcutaneous route in a final volume of 10 ml/Kg. Control animals received 10 ml/kg of the appropriate vehicle alone. Following a pretreatment period of 30 min., the mice were again placed under the heat source and the reaction tine re-determined.
Percentage quantal protection was determined as the number of mice in which the reaction time was doubled compared to pretreatment values, expressed as a percentage of the total number of mice in the group.

mice [2] = experiment: p-phenylquinone-induced abdominal writhing test in mice; assay type: in vivo, mouse (male Charles River, Swiss Strain); settings: Mus musculus, sc, 20 min; subcutaneous; calculated as the free base; 20 min pretreatment, p-phenylquinone 2 mg/Kg i.p.
Protocol: (A) P-phenylquinone-induced abdominal writhing test in mice
The methodology employed is based on that described by Sigmund et al, Proc. Soc. Exptl. Biol. 95, 729/1957, modified by Milne and Twomey, Agents and Actions, 10, 31/1980.
Male Charles River mice (Swiss Strain), 25-36g body weight, were used. Animals were allowed food and water ad libitum and were randomized into groups of 10 prior to experimentation. Test compounds were dissolved in either distilled water or distilled water plus 0.1 M AMS, and administered by the subcutaneous route in a final volume of 10 ml/Kg. Control animals received 10 ml/Kg of the appropriate vehicle alone. Following a pretreatment period of 20 min., mice were injected intraperitoneally with p-phenylquinone, 2 mg/Kg at 37° C. in a final volume of […]. […] During this period the number of abdominal writhing responses per animal were recorded where writhing consists of an intermittent contraction of the abdomen associated with hind leg extension.
The degree of antinociceptive protection afforded by the test compound was determined as the mean number of writhing responses observed in the treated group (T) expressed as a percentage of the mean number of writhing responses in the control group (C) according to the following formula:
[1-(T/C]×100%=% graded protection

[3] = read-out: OPIATE RECEPTORS BINDING MU Ki, fresh guinea pig brain homogenate, 25° C., 40 min
[4] = fresh guinea pig brain homogenate, 3H-Ethyl Ketocyclazocine with 100nM DAGO and 100nM DADLE, 25° C., 40 min, read-out: OPIATE RECEPTORS BINDING KAPPA Ki
[5] = fresh guinea pig brain homogenate, 25° C., 40 min, read-out: OPIATE RECEPTORS BINDING MU Ki

SMILES	Ki (MU opiate receptor; [3]) [nM]	Ki (KAPPA opiate receptor; [4]) [nM]	ED50 (mice [1]) [mg/kg]	ED50 (mice [2]) [mg/kg]	Ki (MU opiate receptor; [5]) [nM]	Ki (KAPPA opiate receptor) [nM]
C[C@@H]1Cc2ccccc2[C@H](CN2CCCC2)N1C(=O)Cc1ccc(Cl)c(Cl)c1 (relative stereo) [Example 1, 1-(pyrrolidin-1-yl)methyl-2-(3,4-dichlorophenyl)acetyl-3-methyl-1,2,3,4-tetrahydroisoquinoline hydrochloride 1/3 hydrate. Diastereoisomer CIS]	14.9	2.65	0.033	0.021		
C[C@H]1Cc2ccccc2[C@H](CN2CCCC2)N1C(=O)Cc1ccc(Cl)c(Cl)c1 (relative stereo) [Example 2, 1-(pyrrolidin-1-yl)methyl-2-(3,4-dichlorophenyl)acetyl-3-methyl-1,2,3,4-tetrahydroisoquinoline hydrochloride hemihydrate acetone. Diastereoisomer TRANS]		1 to 50	> 1			
C[C@@H]1CN(C(=O)Cc2ccc(Cl)c(Cl)c2)[C@@H](CN2CCCC2)c2ccccc21 (relative stereo) [Example 3, 1-(pyrrolidin-1-yl)methyl-2-(3,4-dichlorophenyl)acetyl-4-methyl-1,2,3,4-tetrahydroisoquinoline hydrochloride. Diastereoisomer TRANS]	122	4.79	0.046	0.036		
C[C@H]1CN(C(=O)Cc2ccc(Cl)c(Cl)c2)[C@@H](CN2CCCC2)c2ccccc21 (relative stereo) [Example 4, 1-(pyrrolidin-1-yl)methyl-2-(3,4-dichlorophenyl)acetyl-4-methyl-1,2,3,4-tetrahydroisoquinoline hydrochloride. Diastereoisomer CIS]	1150	14	0.459	0.282		
CC1Cc2ccccc2C(CN2CCCC2)N1C(=O)Cc1ccc(Cl)c(Cl)c1 (single isomer, unassigned) [Example 42, (-)-1-(pyrrolidin-1-yl)methyl-2-(3,4-dichlorophenyl)acetyl-3-methyl-1,2,3,4-tetrahydroisoquinoline D(-) tartrate]	11.1	2.23	0.021	0.01		
O=C(Cc1ccc(Cl)c(Cl)c1)N1CCc2c(O)cccc2C1CN1CCCC1 (centres unmarked) [Example 5, 1-(pyrrolidin-1-yl)methyl-2-(3,4-dichlorophenyl)acetyl-5-hydroxy-1,2,3,4-tetrahydroisoquinoline]	0.69	0.423	0.009	0.005		
COc1cccc2c1CCN(C(=O)Cc1ccc(Cl)c(Cl)c1)C2CN1CCCC1 (centres unmarked) [Example 6, 1-(pyrrolidin-1-Yl)methyl-2-(3,4-dichlorophenyl)acetyl-5-methoxy-1,2,3,4-tetrahydroisoquinoline]			0.054	0.047	277	4.01
O=C(Cc1ccc(Cl)c(Cl)c1)N1CCc2c(Cl)cccc2C1CN1CCCC1 (centres unmarked) [Example 7, 1-(pyrrolidin-1-yl)methyl-2-(3,4-dichlorophenyl)acetyl-5-chloro-1,2,3,4-tetrahydroisoquinoline hydrochloride]			0.836		1580	43.6
CN(C)CC1c2cccc(O)c2CCN1C(=O)Cc1ccc(Cl)c(Cl)c1 (centres unmarked) [Example 10, 1-dimethylaminomethyl-2-(3,4-dichlorophenyl) acetyl-5-hydroxy-1,2,3,4-tetrahydroisoquinoline.]	3.67	0.42	0.088			
O=C(Cc1ccc(Cl)c(Cl)c1)N1CCc2cc(O)ccc2C1CN1CCCC1 (centres unmarked) [Example 16, 1-(pyrrolidin-1-yl)methyl-2-(3,4-dichlorophenyl)acetyl-6-hydroxy-1,2,3,4-tetrahydroisoquinoline.]			0.24		102	1.54
O=C(Cc1ccc(Cl)c(Cl)c1)N1CCc2cccc(Cl)c2C1CN1CCCC1 (centres unmarked) [Example 27, 1-(pyrrolidin-1-yl)methyl-2-(3,4-dichlorophenyl)acetyl-8-chloro-1,2,3,4-tetrahydroisoquinoline hydrochloride 1/4hydrate]			0.092		369	5.46
COc1cccc2c1CCN(C(=O)Cc1ccc(C(F)(F)F)cc1)C2CN1CCCCC1 (centres unmarked) [Example 35, 1-(piperidin-1-yl)methyl-2-(4-trifluoromethylphenyl)acetyl5-methoxy-1,2,3,4-tetrahydroisoquinoline hydrochloride]			0.689	0.204	~1000	
COc1cccc2c1CCN(C(=O)Cc1ccc(Cl)c(Cl)c1)C2CN1CCCCC1 (centres unmarked) [Example 36, 1-(piperidin-1-yl)methyl-2-(3,4-dichlorophenyl)acetyl-5-methoxy-1,2,3,4-tetrahydroisoquinoline hydrochloride]			0.924	0.163	~1000	
O=C(Cc1ccc(C(F)(F)F)cc1)N1CCc2c(O)cccc2C1CN1CCCCC1 (centres unmarked) [Example 37, 1-(piperidin-1-yl)methyl-2-(4-trifluoromethylphenyl)acetyl5-hydroxy-1,2,3,4-tetrahydroisoquinoline hydrochloride]	5.38		0.007	0.0013		
O=C(Cc1ccc(Cl)c(Cl)c1)N1CCc2c(O)cccc2C1CN1CCCCC1 (centres unmarked) [Example 38, 1-(piperidin-1-yl)methyl-2-(3,4-dichlorophenyl)acetyl-5-hydroxy-1,2,3,4-tetrahydroisoquinoline hydrochloride]	11.4		0.01	0.004		
O=C(Cc1ccc(Cl)c(Cl)c1)N1CCc2c(ccc(O)c2O)C1CN1CCCC1 (centres unmarked) [Example 40, 1-(pyrrolidin-1-yl)methyl-2-(3,4-dichlorophenyl)acetyl-5,6-dihydroxy-1,2,3,4-tetrahydroisoquinoline hydrochloride]	49.2		0.461	0.429		
